Patent US7247736B2, “Method of identifying inhibitors of DHODH” (4SC AG, priority 2002, dated 2007)
Entries after “also recorded” stand apart in the source; their conditions may differ.

These molecules were tested against T1, human DHODH(Met30-Arg396) (Homo sapiens, UniProt Q02127) (assay: X-ray co-crystal structure, inhibitor binding mode). Details: carboxylic acid group, subsite 2 vs subsite 3.
T1 construct: N-terminally truncated human DHODH(Met30-Arg396); made in house; host or cells: E. coli BL21(DE3)Gold, pET-19b
Protocol: The hanging drops were incubated against 0.5 mL reservoir of 0.1 M acetate pH 4.8, 2.4-2.6 M ammonium sulfate and 30% glycerol. The crystallization conditions were screened by variation of pH versus ammonium sulfate concentration using a small grid screen (see FIG. 2):
The racemic mixtures were used for crystallization experiments.
Crystals were harvested with pre-mounted loops of size 0.5 mm (Hampton Research) and were flash frozen directly in the cryo stream of the measurement device.
Data were collected at the beamline BW6 at the DESY Hamburg on a MAR-CCD camera. […] The crystals were maintained at a temperature of 100 K during data collection.
[…] At this stage 5% or 10% (the “test set”) of unique reflections were flagged for cross validation to calculate the free R-factor (Rfree) during the refinement process.
(§1) The free accessible pdb entry 1D3G.pdb was used as a search model. The ligands brequinar and DDQ as well as all of the water molecules were removed prior to the MR search. The search model included the polypeptide chain of hDHODH(Met30-Arg396), one molecule of orotate, one molecule of the cofactor flavinmononucleotide (FMN) and one acetate molecule which was present under the crystallization conditions.
(§2) In a first round of refinement the MR model was subjected to rigid body refinement and a slow cooling simulated annealing protocol using a maximum likelihood target to remove model bias (Accelrys Inc. CNX program suite, CNX2002). Additionally, an individual b-factor refinement was carried out using standard CNX protocols.
After energy minimization the compound was built into the electron density manually. […] After an additional round of model building and water picking using CNX another complete round of refinement was performed.
as §1
as §2, with “CNX-protocols.” for “CNX protocols.”
Both compounds were energy minimized and built into the electron density manually. […] After an additional round of model building and water picking using CNX, another complete round of refinement was performed.

T1 sequence (Q02127 29-395): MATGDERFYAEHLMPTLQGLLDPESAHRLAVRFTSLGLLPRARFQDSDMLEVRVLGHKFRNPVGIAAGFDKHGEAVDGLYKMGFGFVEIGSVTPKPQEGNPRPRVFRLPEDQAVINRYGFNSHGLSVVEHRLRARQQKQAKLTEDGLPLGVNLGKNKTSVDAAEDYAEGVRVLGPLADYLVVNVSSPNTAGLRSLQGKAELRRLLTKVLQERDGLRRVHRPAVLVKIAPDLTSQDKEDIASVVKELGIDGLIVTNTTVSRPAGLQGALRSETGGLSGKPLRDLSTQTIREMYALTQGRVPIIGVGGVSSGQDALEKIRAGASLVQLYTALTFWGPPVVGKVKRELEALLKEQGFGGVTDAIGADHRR

| Compound | binding mode in crystal structure |
| --- | --- |
| COc1cccc(-c2ccc(NC(=O)C3CCCC3C(=O)O)c(F)c2)c1 (stereo not drawn) [Compound 6] | both a brequinar-like and a non-brequinar-like binding mode |
| COc1cccc(-c2ccc(NC(=O)C3=C(C(=O)O)CCC3O)c(F)c2)c1 (stereo not drawn) [Compound 7] | non-brequinar-like |
| O=C(O)C1=C(C(=O)Nc2c(F)cc(-c3cccc(OC(F)(F)F)c3)cc2F)CCC1 [Compound 2] | both a brequinar-like and a non-brequinar-like binding mode; also recorded: both the brequinar-like and non-brequinar-like binding mode |
| COc1cccc(-c2ccc(NC(=O)C3=C(C(=O)O)CCC3)c(F)c2)c1 [Compound 1] | non-brequinar-like |
| O=C(Nc1c(F)cc(-c2cccc(OC(F)(F)F)c2)cc1F)c1ccsc1C(=O)O [Compound 9] | pure brequinar-like binding mode |
| O=C(O)C1=C(C(=O)Nc2ccc(-c3cccc(OC(F)(F)F)c3)cc2F)CCC1 [Compound 4] | non-brequinar-like |
| COc1cccc(-c2ccc(NC(=O)C3=C(C(=O)O)C(O)CC3)c(F)c2)c1 (stereo not drawn) [Compound 8] | non-brequinar-like |
| O=C(Nc1ccc(-c2cccc(OC(F)(F)F)c2)cc1F)C1=CCCC1C(=O)O (stereo not drawn) [Compound 5] | non-brequinar-like |
| O=C(O)C1=C(C(=O)Nc2c(F)c(F)c(-c3cccc(OC(F)(F)F)c3)c(F)c2F)CCC1 [Compound 3] | both the brequinar-like and non-brequinar-like binding mode |
| COc1cccc(-c2ccc(NC(=O)c3ccsc3C(=O)O)c(F)c2)c1 [Compound 10] | both a brequinar-like and a non-brequinar-like binding mode; also recorded: both alternatives |

Same assay, conditions: racemic mixture used for crystallization

| Compound | enantiomer bound in refined structure |
| --- | --- |
| COc1cccc(-c2ccc(NC(=O)C3CCCC3C(=O)O)c(F)c2)c1 (stereo not drawn) [Compound 6] | R-form |
| O=C(Nc1ccc(-c2cccc(OC(F)(F)F)c2)cc1F)C1=CCCC1C(=O)O (stereo not drawn) [Compound 5] | R-form |
